Assay results reported in patent US20260078130A1, “NAMPT MODULATORS, PREPARATIONS, AND USES THEREOF” (SIRONAX LTD., priority 2022, published 2026).
Like-named read-outs stand apart in the source and are kept apart here.

Biological target: T1, human enzyme NAMPT (full length) (Homo sapiens, UniProt P43490)
T1 construct: human enzyme NAMPT (full length)
Assay: NMN fluorescence biochemical assay (stimulation of NMN synthesis by NAMPT)
Settings: for EC50: concentration giving half-maximal activation, read-out: Enzymatic EC50; for Enzymatic Emax: fold change of maximal activation compared to DMSO
Description: Certain compounds described herein were assayed for their ability to stimulate the synthesis of nicotinamide mononucleotide (NMN) by human enzyme NAMPT (full length). The enzymatic assay was performed in a 384-well plate using a TMD buffer (50 mM Tris-HCl, 10 mM MgCl2, 2 mM DTT, pH 7.5). Purified NAMPT (100 nM) was pre-incubated with 0.2 μL. DMSO solution of the test compound (with a series of concentrations) in 10 μL TMD buffer for 15 min at 37° C. The reaction was initiated by adding 10 μL solution of NAM (50 μM), PRPP (100 μM), and ATP (4 mM) in TMD buffer. After 1 h of incubation at 37 T, an aliquot (20 μL) of the NMN-containing sample was sequentially mixed with 5 μL of 20% acetophenone (in DMSO) and 5 μL of 2M KOH. The mixture was placed on ice for 10 min. Next, 22.5 μL of 100% formic acid was added to each sample, vortexed, and then incubated at 37° C. for 20 min. Fluorescence (Ex/Em=382/445 nm) was measured using an Envision plate reader. The potency measurements for the test compounds were quantified and represented as EC50 (concentration of a compound that gives half-maximal activation) and Emax (fold change of a compound's maximal activation compared to DMSO).

[1] = NMN fluorescence assay, purified human NAMPT 100 nM
[2] = NMN synthesis by purified human NAMPT (100 nM)

T1 sequence (P43490 whole entry): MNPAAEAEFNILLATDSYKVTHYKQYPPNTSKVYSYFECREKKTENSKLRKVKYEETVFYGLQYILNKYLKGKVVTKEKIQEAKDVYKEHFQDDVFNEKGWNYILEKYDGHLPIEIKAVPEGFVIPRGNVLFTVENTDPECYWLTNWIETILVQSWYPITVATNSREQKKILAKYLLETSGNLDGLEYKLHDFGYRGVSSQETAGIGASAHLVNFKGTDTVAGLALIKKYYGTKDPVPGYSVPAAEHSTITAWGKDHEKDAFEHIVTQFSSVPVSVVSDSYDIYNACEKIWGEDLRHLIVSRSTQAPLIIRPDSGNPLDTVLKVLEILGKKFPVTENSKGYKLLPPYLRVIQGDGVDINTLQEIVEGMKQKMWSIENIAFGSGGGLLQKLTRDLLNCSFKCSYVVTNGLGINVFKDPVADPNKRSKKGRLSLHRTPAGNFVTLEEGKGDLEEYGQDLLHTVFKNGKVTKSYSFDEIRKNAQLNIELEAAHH

Structure (SMILES) | EC50 [1] [µM] | Enzymatic Emax | EC50 [2] [µM]
O=C1N[C@H]2CCC(CN3C(=O)c4ccccc4C3Cc3ncccc3Br)C[C@@H]2O1 (relative stereo) [Compound 466, trans-6-((1-((3-bromopyridin-2-yl)methyl)-3-oxoisoindolin-2-yl)methyl)hexahydrobenzo[d]oxazol-2(3H)-one] | ≥ 5 | C (2≥C) | 
Cn1ncc(Cl)c1CC1c2ccccc2C(=O)N1C[C@@H]1C[C@H]1c1c[nH]nn1 (relative stereo) [Compound 548, trans 2-((2-(1H-1,2,3-triazol-4-yl)cyclopropyl)methyl)-3-((4-chloro-1-methyl-1H-pyrazol-5-yl)methyl)isoindolin-1-one] | 0.5 to 5 |  | 
COC1CN(Cc2ccc3c(c2)[C@H](C)N(Cc2ccc4[nH]c(=O)oc4c2)C3=O)C1 (single isomer, unassigned) [Compound 185] |  | B (3≥B>2) | ≥ 5
O=C1COc2ccccc2N1Cc1ccc(O)cc1 [Compound 6, 4-(4-hydroxybenzyl)-2H-benzo[b][1,4]oxazin-3(4H)-one] |  | B (3≥B>2) | ≥ 5
O=C1c2ccccc2CCN1Cc1ccc2[nH]c(=O)oc2c1 [Compound 8, 6-((1-oxo-3,4-dihydroisoquinolin-2(1H)-yl)methyl)benzo[d]oxazol-2(3H)-one] |  | B (3≥B>2) | ≥ 5
O=C1Cc2ccccc2CN1Cc1ccc(O)cc1 [Compound 10, 2-(4-hydroxybenzyl)-1,4-dihydroisoquinolin-3(2H)-one] |  | B (3≥B>2) | ≥ 5
O=c1[nH]n(Cc2ccc(O)cc2)c2ccccc12 [Compound 13, 1-(4-hydroxybenzyl)-1,2-dihydro-3H-indazol-3-one] |  | B (3≥B>2) | ≥ 5
O=C1c2cccc(Nc3ccccc3)c2C(=O)N1Cc1ccc(O)cc1 [Compound 17, 2-(4-hydroxybenzyl)-4-(phenylamino)isoindoline-1,3-dione] |  | B (3≥B>2) | 0.5 to 5
CC(C)(C)c1ccc2c(c1)C(=O)N(Cc1ccc(O)cc1)C2=O [Compound 18, 5-(tert-butyl)-2-(4-hydroxybenzyl)isoindoline-1,3-dione] |  | B (3≥B>2) | 0.5 to 5
CCn1c2ccccc2c(=O)n1Cc1ccc(O)cc1 [Compound 24, 1-ethyl-2-(4-hydroxybenzyl)-1,2-dihydro-3H-indazol-3-one] |  | A (A>3) | ≥ 5
N#CC1c2ccccc2C(=O)N1Cc1ccc(O)cc1 (centres unmarked) [Compound 28, 2-(4-hydroxybenzyl)-3-oxoisoindoline-1-carbonitrile] |  | A (A>3) | ≥ 5
COc1ccc2c(c1)C(=O)N(Cc1ccc(O)cc1)C2=O [Compound 30, 2-(4-hydroxybenzyl)-5-methoxyisoindoline-1,3-dione] |  | A (A>3) | 0.5 to 5
Cc1ccc2c(c1)C(=O)N(Cc1ccc(O)cc1)C2 [Compound 32, 2-(4-hydroxybenzyl)-6-methylisoindolin-1-one] |  | A (A>3) | ≥ 5
CNC(=O)c1ccc2c(c1)C(C)N(Cc1ccc3[nH]c(=O)oc3c1)C2=O (centres unmarked) [Compound 92, N,3-dimethyl-1-oxo-2-((2-oxo-2,3-dihydrobenzo[d]oxazol-6-yl)methyl)isoindoline-5-carboxamide] |  | B (3≥B>2) | ≥ 5
Cc1ncccc1CC1c2ccccc2C(=O)N1Cc1ccc2[nH]c(=O)oc2c1 (centres unmarked) [Compound 165, 6-((1-((2-methylpyridin-3-yl)methyl)-3-oxoisoindolin-2-yl)methyl)benzo[d]oxazol-2(3H)-one] |  | B (3≥B>2) | 0.5 to 5
N#Cc1cccc(F)c1C[C@@H]1c2ccccc2C(=O)N1Cc1ccc2[nH]c(=O)oc2c1 [Compound 171, (R)-3-fluoro-2-((3-oxo-2-((2-oxo-2,3-dihydrobenzo[d]oxazol-6-yl)methyl)isoindolin-1-yl)methyl)benzonitrile] |  | C (2≥C) | ≥ 5
Cc1cccnc1C[C@@H]1c2ccccc2C(=O)N1Cc1ccc2[nH]c(=O)oc2c1 [Compound 177, (R)-6-((1-((3-methylpyridin-2-yl)methyl)-3-oxoisoindolin-2-yl)methyl)benzo[d]oxazol-2(3H)-one] |  | C (2≥C) | ≥ 5

Structure (SMILES) | EC50 [1] [µM] | Enzymatic Emax | EC50 [2] [µM]
Cc1cc(CC2c3ccccc3C(=O)N2Cc2ccc3[nH]c(=O)oc3c2)ccn1 (centres unmarked) [Compound 179, 6-((1-((2-methylpyridin-4-yl)methyl)-3-oxoisoindolin-2-yl)methyl)benzo[d]oxazol-2(3H)-one] |  | B (3≥B>2) | ≥ 5
COc1cccc(CC2c3ccccc3C(=O)N2Cc2ccc3[nH]c(=O)oc3c2)c1 (centres unmarked) [Compound 180, 6-((1-(3-methoxybenzyl)-3-oxoisoindolin-2-yl)methyl)benzo[d]oxazol-2(3H)-one] |  | B (3≥B>2) | 0.5 to 5
CC(C)c1cccnc1CC1c2ccccc2C(=O)N1Cc1ccc2[nH]c(=O)oc2c1 (centres unmarked) [Compound 181, 6-((1-((3-isopropylpyridin-2-yl)methyl)-3-oxoisoindolin-2-yl)methyl)benzo[d]oxazol-2(3H)-one] |  | B (3≥B>2) | ≥ 5
O=C1c2ccccc2C(Cc2cccnc2F)N1Cc1ccc2[nH]c(=O)oc2c1 (centres unmarked) [Compound 183, 6-((1-((2-fluoropyridin-3-yl)methyl)-3-oxoisoindolin-2-yl)methyl)benzo[d]oxazol-2(3H)-one] |  | B (3≥B>2) | 0.5 to 5
O=C1c2ccccc2C(Cc2ncccc2C2CC2)N1Cc1ccc2[nH]c(=O)oc2c1 (centres unmarked) [Compound 184, 6-((1-((3-cyclopropylpyridin-2-yl)methyl)-3-oxoisoindolin-2-yl)methyl)benzo[d]oxazol-2(3H)-one] |  | B (3≥B>2) | 0.5 to 5
O=C1c2ccccc2C(Cc2ccc(F)cn2)N1Cc1ccc2[nH]c(=O)oc2c1 (centres unmarked) [Compound 194, 6-((1-((5-fluoropyridin-2-yl)methyl)-3-oxoisoindolin-2-yl)methyl)benzo[d]oxazol-2(3H)-one] |  | B (3≥B>2) | 0.5 to 5
O=C1c2ccccc2C(Cc2ccc(Cl)cn2)N1Cc1ccc2[nH]c(=O)oc2c1 (centres unmarked) [Compound 196, 6-((1-((5-chloropyridin-2-yl)methyl)-3-oxoisoindolin-2-yl)methyl)benzo[d]oxazol-2(3H)-one] |  | B (3≥B>2) | 0.5 to 5
N#Cc1cccc(CC2c3ccccc3C(=O)N2Cc2ccc3[nH]c(=O)oc3c2)c1F (centres unmarked) [Compound 204, 2-fluoro-3-((3-oxo-2-((2-oxo-2,3-dihydrobenzo[d]oxazol-6-yl)methyl)isoindolin-1-yl)methyl)benzonitrile] |  | B (3≥B>2) | 0.5 to 5
Nc1ccccc1CC1c2ccccc2C(=O)N1Cc1ccc2[nH]c(=O)oc2c1 (centres unmarked) [Compound 208, 6-((1-(2-aminobenzyl)-3-oxoisoindolin-2-yl)methyl)benzo[d]oxazol-2(3H)-one] |  | B (3≥B>2) | 0.5 to 5
COc1ccc(CC2c3ccccc3C(=O)N2Cc2ccc3[nH]c(=O)oc3c2)cc1 (centres unmarked) [Compound 213, 6-((1-(4-methoxybenzyl)-3-oxoisoindolin-2-yl)methyl)benzo[d]oxazol-2(3H)-one] |  | A (A>3) | 0.5 to 5
O=C1c2ccccc2C(Cc2ccc3ncoc3c2)N1Cc1ccc2[nH]c(=O)oc2c1 (centres unmarked) [Compound 216, 6-((1-(benzo[d]oxazol-6-ylmethyl)-3-oxoisoindolin-2-yl)methyl)benzo[d]oxazol-2(3H)-one] |  | A (A>3) | 0.5 to 5
O=C1c2ccccc2C(Cc2cccc3ncoc23)N1Cc1ccc2[nH]c(=O)oc2c1 (centres unmarked) [Compound 218, 6-((1-(benzo[d]oxazol-7-ylmethyl)-3-oxoisoindolin-2-yl)methyl)benzo[d]oxazol-2(3H)-one] |  | A (A>3) | 0.5 to 5
N#Cc1cccc(CC2c3ccccc3C(=O)N2Cc2ccc3[nH]c(=O)oc3c2)n1 (centres unmarked) [Compound 219, 6-((3-oxo-2-((2-oxo-2,3-dihydrobenzo[d]oxazol-6-yl)methyl)isoindolin-1-yl)methyl)picolinonitrile] |  | B (3≥B>2) | 0.5 to 5
O=C1c2ccccc2C(Cc2cc(Cl)ccn2)N1Cc1ccc2[nH]c(=O)oc2c1 (centres unmarked) [Compound 220, 6-((1-((4-chloropyridin-2-yl)methyl)-3-oxoisoindolin-2-yl)methyl)benzo[d]oxazol-2(3H)-one] |  | B (3≥B>2) | 0.5 to 5
O=C1c2ccccc2C(Cc2ncccc2Br)N1Cc1cnc2[nH]c(=O)oc2c1 (centres unmarked) [Compound 222, 6-((1-((3-bromopyridin-2-yl)methyl)-3-oxoisoindolin-2-yl)methyl)oxazolo[4,5-b]pyridin-2(3H)-one] |  | B (3≥B>2) | ≥ 5
O=C1c2ccccc2C(CC2CCOCC2)N1Cc1ccc2[nH]c(=O)oc2c1 (centres unmarked) [Compound 226, 6-((1-oxo-3-((tetrahydro-2H-pyran-4-yl)methyl)isoindolin-2-yl)methyl)benzo[d]oxazol-2(3H)-one] |  | B (3≥B>2) | ≥ 5
